{"source": "patent US20230085307A1", "about": "“PYRIDAZINONE COMPOUND AND HERBICIDE” (NISSAN CHEMICAL CORPORATION, priority 2019, published 2023)", "conditions_in_all_cases": "foliage application, 320 g/ha", "key": {"southern crabgrass": {"tested_on": "southern crabgrass", "assay": "Test Example 5: herbicidal effect by foliage application, plastic box (Table 20, symbol F)", "format": "in vivo, southern crabgrass (Digitaria ciliaris)", "outline": "(§1)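 Plants were sown into sterilized diluvial soil under about 1.5 cm cover and kept in a greenhouse at 25° C. to 30° C. Fourteen days on, foliage received an even spray of the diluted emulsion. Herbicidal or crop effect was judged three weeks afterwards.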"}, "green foxtail": {"tested_on": "green foxtail", "assay": "Test Example 5: herbicidal effect by foliage application, plastic box (Table 20, symbol G)", "format": "in vivo, green foxtail (Setaria viridis)", "outline": "as §1"}, "barnyard grass": {"tested_on": "barnyard grass", "assay": "Test Example 5: herbicidal effect by foliage application, plastic box (Table 20, symbol H)", "format": "in vivo, barnyard grass (Echinochloa crus-galli)", "outline": "as §1"}, "wild oat": {"tested_on": "wild oat", "assay": "Test Example 5: herbicidal effect by foliage application, plastic box (Table 20, symbol I)", "format": "in vivo, wild oat (Avena fatua)", "outline": "as §1"}, "blackgrass": {"tested_on": "blackgrass", "assay": "Test Example 5: herbicidal effect by foliage application, plastic box (Table 20, symbol J)", "format": "in vivo, blackgrass (Alopecurus myosuroides)", "outline": "as §1"}, "Italian ryegrass": {"tested_on": "Italian ryegrass", "assay": "Test Example 5: herbicidal effect by foliage application, plastic box (Table 20, symbol K)", "format": "in vivo, Italian ryegrass (Lolium multiflorum)", "outline": "as §1"}, "windgrass": {"tested_on": "windgrass", "assay": "Test Example 5: herbicidal effect by foliage application, plastic box (Table 20, symbol L)", "format": "in vivo, windgrass (Apera spica-venti)", "outline": "as §1"}, "velvetleaf": {"tested_on": "velvetleaf", "assay": "Test Example 5: herbicidal effect by foliage application, plastic box (Table 20, symbol M)", "format": "in vivo, velvetleaf (Abutilon theophrasti)", "outline": "as §1"}, "redroot pigweed": {"tested_on": "redroot pigweed", "assay": "Test Example 5: herbicidal effect by foliage application, plastic box (Table 20, symbol N)", "format": "in vivo, redroot pigweed (Amaranthus retroflexus)", "outline": "as §1"}, "lambsquarters": {"tested_on": "lambsquarters", "assay": "Test Example 5: herbicidal effect by foliage application, plastic box (Table 20, symbol O)", "format": "in vivo, lambsquarters (Chenopodium album)", "outline": "as §1"}, "chickweed": {"tested_on": "chickweed", "assay": "Test Example 5: herbicidal effect by foliage application, plastic box (Table 20, symbol P)", "format": "in vivo, common chickweed (Stellaria media)", "outline": "as §1"}, "false cleavers": {"tested_on": "false cleavers", "assay": "Test Example 5: herbicidal effect by foliage application, plastic box (Table 20, symbol Q)", "format": "in vivo, false cleavers (Galium spurium)", "description": "[Test Example 5] Herbicidal Effect Test by Foliage Application\nSterilized diluvial soil was placed in a plastic box having a length of 21 cm, a width of 13 cm, and a depth of 7 cm. The seeds of each of southern crabgrass, green foxtail, barnyard grass, wild oat, blackgrass, Italian ryegrass, windgrass, velvetleaf, redroot pigweed, lambsquarters, chickweed, false cleavers, persian speedwell, corn, soybean, rice, wheat, beet, and rapeseed were sowed in a spot-like manner and covered with the soil having a thickness of about 1.5 cm. Thereafter, the plants were grown in a greenhouse at 25° C. to 30° C. After 14-day growth of the plants, the emulsion agent of the compound of the present invention prepared according to Formulation Example 2 was diluted with water so as to achieve a predetermined herbicide amount, and the diluted emulsion agent was uniformly applied to a foliage part with a small-sized spray. Three weeks after the herbicide application, the effect of the herbicide on each plant was evaluated according to the criteria of Test Example 1."}, "persian speedwell": {"tested_on": "persian speedwell", "assay": "Test Example 5: herbicidal effect by foliage application, plastic box (Table 20, symbol R)", "format": "in vivo, Persian speedwell (Veronica persica)", "outline": "as §1"}, "[1]": {"conditions": "evaluated three weeks after application"}}}
{"smiles": "COc1cc(F)ccc1-c1sc2ccc(-c3ccc(OC(C)C)cc3)cc2c1-c1c(O)c(C)nn(C)c1=O", "note": "[2-167]", "values": [{"measurement": "herbicidal effect on F: southern crabgrass (criteria 0-5)", "setting": "southern crabgrass; [1]", "result": "0 (Herbicidal rate of 5% or less (almost no effect))"}, {"measurement": "herbicidal effect on G: green foxtail (criteria 0-5)", "setting": "green foxtail; [1]", "result": "0 (Herbicidal rate of 5% or less (almost no effect))"}, {"measurement": "herbicidal effect on H: barnyard grass (criteria 0-5)", "setting": "barnyard grass; [1]", "result": "0 (Herbicidal rate of 5% or less (almost no effect))"}, {"measurement": "herbicidal effect on I: wild oat (criteria 0-5)", "setting": "wild oat; [1]", "result": "0 (Herbicidal rate of 5% or less (almost no effect))"}, {"measurement": "herbicidal effect on J: blackgrass (criteria 0-5)", "setting": "blackgrass; [1]", "result": "0 (Herbicidal rate of 5% or less (almost no effect))"}, {"measurement": "herbicidal effect on K: Italian ryegrass (criteria 0-5)", "setting": "Italian ryegrass; [1]", "result": "0 (Herbicidal rate of 5% or less (almost no effect))"}, {"measurement": "herbicidal effect on L: windgrass (criteria 0-5)", "setting": "windgrass; [1]", "result": "0 (Herbicidal rate of 5% or less (almost no effect))"}, {"measurement": "herbicidal effect on M: velvetleaf (criteria 0-5)", "setting": "velvetleaf; [1]", "result": "0 (Herbicidal rate of 5% or less (almost no effect))"}, {"measurement": "herbicidal effect on N: redroot pigweed (criteria 0-5)", "setting": "redroot pigweed; [1]", "result": "3 (Herbicidal rate of 40% or more and less than 70%)"}, {"measurement": "herbicidal effect on O: lambsquarters (criteria 0-5)", "setting": "lambsquarters; [1]", "result": "0 (Herbicidal rate of 5% or less (almost no effect))"}, {"measurement": "herbicidal effect on P: chickweed (criteria 0-5)", "setting": "chickweed; [1]", "result": "0 (Herbicidal rate of 5% or less (almost no effect))"}, {"measurement": "herbicidal effect on Q: false cleavers (criteria 0-5)", "setting": "false cleavers; [1]", "result": "0 (Herbicidal rate of 5% or less (almost no effect))"}, {"measurement": "herbicidal effect on R: persian speedwell (criteria 0-5)", "setting": "persian speedwell; [1]", "result": "0 (Herbicidal rate of 5% or less (almost no effect))"}]}
{"smiles": "CCCC(=O)Oc1c(C)nn(C)c(=O)c1-c1c(-c2ccc(OC)cc2)sc2cc(C)ccc12", "note": "[3-052]", "values": [{"measurement": "F: southern crabgrass, herbicidal effect grade", "setting": "southern crabgrass; three weeks after application", "result": "0 (Herbicidal rate of 5% or less (almost no effect))"}, {"measurement": "G: green foxtail, herbicidal effect grade", "setting": "green foxtail; three weeks after application", "result": "3 (Herbicidal rate of 40% or more and less than 70%)"}, {"measurement": "H: barnyard grass, herbicidal effect grade", "setting": "barnyard grass; three weeks after application", "result": "0 (Herbicidal rate of 5% or less (almost no effect))"}, {"measurement": "I: wild oat, herbicidal effect grade", "setting": "wild oat; three weeks after application", "result": "0 (Herbicidal rate of 5% or less (almost no effect))"}, {"measurement": "J: blackgrass, herbicidal effect grade", "setting": "blackgrass; three weeks after application", "result": "0 (Herbicidal rate of 5% or less (almost no effect))"}, {"measurement": "K: Italian ryegrass, herbicidal effect grade", "setting": "Italian ryegrass; three weeks after application", "result": "0 (Herbicidal rate of 5% or less (almost no effect))"}, {"measurement": "L: windgrass, herbicidal effect grade", "setting": "windgrass; three weeks after application", "result": "0 (Herbicidal rate of 5% or less (almost no effect))"}, {"measurement": "M: velvetleaf, herbicidal effect grade", "setting": "velvetleaf; three weeks after application", "result": "3 (Herbicidal rate of 40% or more and less than 70%)"}, {"measurement": "N: redroot pigweed, herbicidal effect grade", "setting": "redroot pigweed; three weeks after application", "result": "0 (Herbicidal rate of 5% or less (almost no effect))"}, {"measurement": "O: lambsquarters, herbicidal effect grade", "setting": "lambsquarters; three weeks after application", "result": "0 (Herbicidal rate of 5% or less (almost no effect))"}, {"measurement": "P: chickweed, herbicidal effect grade", "setting": "chickweed; three weeks after application", "result": "5 (Herbicidal rate of 90% or more (almost completely withered))"}, {"measurement": "Q: false cleavers, herbicidal effect grade", "setting": "false cleavers; three weeks after application", "result": "2 (Herbicidal rate of 20% or more and less than 40%)"}, {"measurement": "R: persian speedwell, herbicidal effect grade", "setting": "persian speedwell; three weeks after application", "result": "5 (Herbicidal rate of 90% or more (almost completely withered))"}]}
